Source: patent US11896678B2, “Compositions and methods for treatment of peroxisome proliferator-activated receptor gamma (PPARG) activated cancer” (THE BROAD INSTITUTE, INC., priority 2017, dated 2024)

What was measured:
PPARG = target: T1, PPARG (Homo sapiens, UniProt P37231); assay: RT112/84 FABP4-NLucP reporter gene assay, unstimulated; format: cell-based
T1 construct: endogenous in cells; host or cells: RT112/84 bladder cancer cells (FABP4-NLucP knock-in clone)
T1 sequence (P37231 1-477 isoform P37231-2): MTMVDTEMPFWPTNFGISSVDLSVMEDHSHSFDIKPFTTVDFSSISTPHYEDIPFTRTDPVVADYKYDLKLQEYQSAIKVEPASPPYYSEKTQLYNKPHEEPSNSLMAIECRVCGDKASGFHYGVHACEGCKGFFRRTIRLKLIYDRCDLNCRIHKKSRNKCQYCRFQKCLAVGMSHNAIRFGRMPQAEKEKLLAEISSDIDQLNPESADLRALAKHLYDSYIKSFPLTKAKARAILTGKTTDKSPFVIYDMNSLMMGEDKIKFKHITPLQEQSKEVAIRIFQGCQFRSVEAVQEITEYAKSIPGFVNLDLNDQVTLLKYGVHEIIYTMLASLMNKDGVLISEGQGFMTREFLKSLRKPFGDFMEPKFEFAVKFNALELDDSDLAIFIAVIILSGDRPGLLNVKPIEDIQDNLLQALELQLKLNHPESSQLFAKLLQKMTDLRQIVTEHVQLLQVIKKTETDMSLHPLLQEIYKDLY
Description: Next, a PPARG reporter cell line was engineered to enable higher throughput assays to evaluate PPARG transactivation. Briefly, a destabilized NanoLuc luciferase reporter gene was inserted into the 3′-UTR of the FABP4 gene in the RT112/84 bladder cancer cell line using CRISPR/Cas9 mediated homology-directed repair (FIG. 4A).
RT112-FABP4-NLucP Reporter Gene Assay: Reporter cell line was generated by engineering NanoLuc gene into the 3′ UTR of FABP4 in RT112/84 cells using CRISPR/Cas9 guided genome engineering. Single cell clones were generated and the clone with the widest dynamic range selected for use. Assays were performed by seeding 384-well plates with ˜10,000 cells per well in MEMalpha containing 10% FBS and dosing compounds at indicated concentration using HP D300 digital dispenser (HP/Tecan). 18-24 hours after dosing with compound, cells were assayed using NanoGlo Luciferase Assay Reagent (Promega Madison, WI) and plates were read using EnVision Multilabel Reader (PerkinElmer Waltham, MA).

[1] = target: T2, PPARG ligand-binding domain - TRAP220/MED1 coactivator peptide (Homo sapiens, UniProt P37231); assay: TR-FRET coactivator assay, TRAP220/MED1 peptide; format: biochemical
T2 construct: purchased ThermoFisher Scientific
T2 sequence (P37231 238-503 limits assumed): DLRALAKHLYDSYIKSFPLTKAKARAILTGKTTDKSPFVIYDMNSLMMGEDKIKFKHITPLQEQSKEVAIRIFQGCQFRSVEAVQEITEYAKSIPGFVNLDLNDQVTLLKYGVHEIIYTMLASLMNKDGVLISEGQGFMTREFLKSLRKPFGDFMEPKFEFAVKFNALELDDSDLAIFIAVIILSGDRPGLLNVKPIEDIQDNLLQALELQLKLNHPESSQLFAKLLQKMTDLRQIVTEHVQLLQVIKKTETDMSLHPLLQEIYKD

[2] = target: T3, PPARG ligand-binding domain (Homo sapiens, UniProt P37231); assay: TR-FRET PPARG competition binding assay; conditions: maximal concentration tested 10 uM
T3 sequence (P37231 238-503 limits assumed): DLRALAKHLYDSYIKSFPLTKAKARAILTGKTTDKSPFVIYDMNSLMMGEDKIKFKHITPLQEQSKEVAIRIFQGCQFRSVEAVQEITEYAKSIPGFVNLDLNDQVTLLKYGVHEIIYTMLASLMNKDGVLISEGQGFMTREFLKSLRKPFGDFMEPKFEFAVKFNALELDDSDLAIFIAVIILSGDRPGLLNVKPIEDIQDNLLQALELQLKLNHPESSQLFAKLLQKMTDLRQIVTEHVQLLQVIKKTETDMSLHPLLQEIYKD
Description: To evaluate binding affinity, a PPARG competition binding assay that measures displacement of a fluorescent PPARG ligand from the PPARG ligand-binding domain was used.
Biochemical Assays: The LanthaScreen TR-FRET PPAR gamma Competitive Binding Assay and LanthaScreen TR-FRET PPAR gamma Coactivator Assay were obtained from ThermoFisher Scientific. Assays were performed according to the manufacturer's protocol. In order to assay inverse-agonism, the Coactivator assay was modified by the use of fluorescently labeled co-repressor peptides (NCoR1 ID2 peptide, SMRT ID2 peptide) to convert from agonist mode (coactivator recruitment) into inverse-agonist mode (corepressor recruitment).

[3] = system: PPARG target gene expression in UM-UC-9 cells; assay: RNA sequencing of UM-UC-9 cells after 7 days dosing; format: cell-based, human; conditions: 500 nmol/L
Description: Next, the effects of long-term dosing on the transcriptional profile of the PPARG-amplified cell line, UMUC-9, were evaluated. Briefly, UM-UC-9 cells were treated for 7 days with various PPARG modulators dosed at 500 nmol/L and gene expression was analyzed using RNA sequencing. […] Genes that were more abundantly expressed upon treatment with inverse-agonists included ALPP, SPINK4, and ALDH1A3 (FIG. 5). […] In summary, the in vitro pharmacological properties of known PPARG modulators have been characterized and two distinct chemotypes with bona-fide inverse-agonist activity in PPARG-activated bladder cancer cells were identified.
RNAseq analysis: RNA was isolated using RNEasy (Qiagen) and an RNAseq library was prepared using NEBNext Ultra Directional RNA Library Prep Kit for Illumina and NEBNext Multiplex Oligos for Illumina (New England BioLabs). RNAseq sequencing was performed using an Illumina MiSeq instrument according to the manufacturers protocol. Sequence data was analyzed using Firehose (Broad Institute, Cambridge MA) to map transcripts and calculate RPKM (SW780 cDNA expression) or TPM (UM-UC-9).
For UM-UC-9 RNAseq experiment, the resulting reads were used to calculate transcript abundance in units of TPM (transcripts per million) (18), which were then adjusted using TMM normalization (19) for comparison. […]

UM-UC-9 cells = assay: Direct cell counting dose-response proliferation assay; format: cell-based, human
Description: To determine whether PPARG modulators affect the proliferation and/or viability of PPARG-activated bladder cancer cell lines, a direct cell counting-based assay was performed. This assay likely avoids potential artifacts associated with the use of an ATP content-based assay, given that PPAR modulators are known to regulate cellular metabolic activity. […] These IC50 values align well with the calculated IC50s from both the cell-based reporter gene assay (FIG. 8A) and the biochemical corepressor assay (FIG. 8D).
(§1) Proliferation Assays: To enable cell-counting experiments, cell lines were transduced with a lentiviral vector encoding nuclear-targeted GFP, TagGFP2-H2B (Evrogen), and stable pools generated following selection for puromycin resistance. Cell lines were maintained for at least 7 days following selection prior to expansion and seeding into 96- or 384-well plates for further analysis. For kinetic proliferation assays, 96-well plates (n 1% 4 per condition) were imaged and counted every two hours using IncuCyte Zoom (Essen BioScience). Media and compounds were replaced approximately every 3-4 days. For endpoint assays to measure dose-response, cells were plated in 384-well plates, dosed with compound, and upon reaching approximately 70% to 90% confluence in control wells, cells were either counted using fluorescence imaging (Incu-Cyte Zoom) or incubated with CyQuant (Thermo Fisher) at the indicated time and plates were read with a fluorescent plate reader.

[4] = system: PPARG-activated bladder cancer cell lines; assay: Proliferation assays in PPARG-activated bladder cancer cell lines; format: cell-based, human; conditions: 100 nM-500 nM
Description: A panel of bladder cancer cell lines with PPARG modulators in colony formation assays was then tested (FIG. 10), kinetic proliferation assays (IncuCyte Zoom; Essen Bioscience) using cell lines treated with a single concentration of compound (100 nM-500 nM), and end-point dose-response assays (CellTiter Glo or CyQuant).
This assay was expanded to include an additional 8 representative bladder cancer cell lines, including cell lines with PPARG amplification, RXRA p.S427F mutation, activated gene signature, and control cell lines with low level expression of PPARG and target genes. […] Representative data for the UM-UC-9 cell line are shown in FIG. 6B, and is tabulated for the tested bladder cancer cell lines in Table 1. […] This significant (P<0.01) preferential sensitivity to PPARG inverse-agonists, but not antagonists, is maintained across all of the PPARG-activated cell lines in the panel, including the RXRA p.S427F cell line, HT-1197 (41), the PPARG-amplified cell lines, 5637 and UM-UC-9, and the PPARG activation gene signature cell lines Cal29, UM-UC-1, and RT112/84 (FIG. 12). […] Similar results were obtained with these cell lines in parallel studies using clonogenic assays to quantify colony-forming ability (FIG. 10).
as §1

[5] = system: PPARG-activated pancreatic and colorectal cancer cell lines; assay: Kinetic proliferation assay in pancreatic and colorectal cancer cell lines; format: cell-based; conditions: 500 nM
Description: To enable cell-counting, cell lines were transduced with a lentiviral vector encoding nuclear-targeted GFP (TagGFP2-H2B), and stable pools generated following selection for puromycin-resistance. Cell lines were maintained for at least 7 days following selection prior to expansion and seeding into 96-well plates for further analysis. For kinetic proliferation assays, 96-well plates were imaged in phase-contrast and green fluorescence mode every two hours using IncuCyte Zoom (Essen BioScience, Ann Arbor MI). Using IncuCyte software, the number of fluorescent nuclei were counted to monitor quantitative changes in cell number over time. Media and compounds were replaced approximately every 3-4 days.
DMSO treatment was also included as a vehicle control.

In the case of COP(=O)(OC)OC(c1ccc(Cl)cc1)P(=O)(OC)OC (stereo not drawn) [SR202, Mifobate], the “effect on unstimulated reporter” value (PPARG) is reported as “minimal detectable effect”, the “effect in coactivator assay” value [1] is reported as “minimal effect” and the “binding to PPARG LBD, competition with fluorescent ligand” value [2] is reported as “weak activity”.

With Cc1c(C)n(Cc2ccc(-c3ccccc3C(=O)O)cc2)c2ccc(C(=O)N[C@@H](C)c3ccc(C(C)(C)C)cc3)cc12 [SR2595] the “hierarchical clustering of gene expression signatures” value [3] was “cluster with vehicle-treated controls”, the “effect on cell proliferation compared with DMSO control” value (UM-UC-9 cells) was “no significant effects” and the “sensitivity of cell lines” value [4] was “not sensitive”. The “sensitivity of cell lines” value [5] was “not sensitive”.

With CCC(=O)NC[C@H](Cc1ccc(OCCc2nc(-c3ccccc3)oc2C)cc1)N/C(C)=C\C(=O)c1ccc(C(F)(F)F)cc1 [GW6471] the “effect on unstimulated reporter” value (PPARG) was “modest inhibitory effect”.

In the case of CCCCCOc1cc2c(cc1-c1cc(/C=C/C(=O)O)ccc1O)C(C)(C)CCC2(C)C [UVI3003], the “effect in coactivator assay” value [1] is reported as “minimal effect”.
